According to patent publication US8952169B2 (Genentech, Inc., priority 2012, dated 2015):

Columns and labels:
hNav1.7 [1] = molecular target: T1, hNav1.7 (Homo sapiens (Human), UniProt Q15858); assay: Patch voltage clamp electrophysiology (PatchXpress), HEK-293 cells, inactivated state block; format: cell-based; conditions: HEK-293 cells, β1 coexpressed; inactivated state, holding −60 mV; read-out: EP_PX 293 hNav1.7 (IC50)
hNav1.7 [2] = molecular target: T1, hNav1.7; assay: Tritiated aryl sulfonamide binding to membranes from cells expressing hNav1.7 and the β1 subunit (competitive binding); conditions: membranes with hNav1.7 and β1 subunit; [3H]compound displacement, 18 h, room temperature; read-out: NaV1.7 395 Memb Binding (IC50)
How it was run: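 Competitive displacement of 100 μM [3H]-labelled tritiated aryl sulfonamide from hNav1.7/β1 membranes, 18 h at room temperature in 100 mM NaCl, 20 mM Tris HCl pH 7.4. Non-specific binding defined with 1 μM unlabelled compound. Filter-bound radioactivity measured by liquid scintillation counting.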

hNav1.5 = hNav1.5 (Homo sapiens (Human), UniProt Q14524); assay: Patch voltage clamp electrophysiology (PatchXpress), HEK-293 cells, inactivated state block; conditions: read-out: EP_PX 293 hNav1.5 (IC50), β1 coexpressed, holding −60 mV;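 further: control was the sodium current recorded in 0.5% DMSO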
Chain of hNav1.5 (Q14524 whole entry): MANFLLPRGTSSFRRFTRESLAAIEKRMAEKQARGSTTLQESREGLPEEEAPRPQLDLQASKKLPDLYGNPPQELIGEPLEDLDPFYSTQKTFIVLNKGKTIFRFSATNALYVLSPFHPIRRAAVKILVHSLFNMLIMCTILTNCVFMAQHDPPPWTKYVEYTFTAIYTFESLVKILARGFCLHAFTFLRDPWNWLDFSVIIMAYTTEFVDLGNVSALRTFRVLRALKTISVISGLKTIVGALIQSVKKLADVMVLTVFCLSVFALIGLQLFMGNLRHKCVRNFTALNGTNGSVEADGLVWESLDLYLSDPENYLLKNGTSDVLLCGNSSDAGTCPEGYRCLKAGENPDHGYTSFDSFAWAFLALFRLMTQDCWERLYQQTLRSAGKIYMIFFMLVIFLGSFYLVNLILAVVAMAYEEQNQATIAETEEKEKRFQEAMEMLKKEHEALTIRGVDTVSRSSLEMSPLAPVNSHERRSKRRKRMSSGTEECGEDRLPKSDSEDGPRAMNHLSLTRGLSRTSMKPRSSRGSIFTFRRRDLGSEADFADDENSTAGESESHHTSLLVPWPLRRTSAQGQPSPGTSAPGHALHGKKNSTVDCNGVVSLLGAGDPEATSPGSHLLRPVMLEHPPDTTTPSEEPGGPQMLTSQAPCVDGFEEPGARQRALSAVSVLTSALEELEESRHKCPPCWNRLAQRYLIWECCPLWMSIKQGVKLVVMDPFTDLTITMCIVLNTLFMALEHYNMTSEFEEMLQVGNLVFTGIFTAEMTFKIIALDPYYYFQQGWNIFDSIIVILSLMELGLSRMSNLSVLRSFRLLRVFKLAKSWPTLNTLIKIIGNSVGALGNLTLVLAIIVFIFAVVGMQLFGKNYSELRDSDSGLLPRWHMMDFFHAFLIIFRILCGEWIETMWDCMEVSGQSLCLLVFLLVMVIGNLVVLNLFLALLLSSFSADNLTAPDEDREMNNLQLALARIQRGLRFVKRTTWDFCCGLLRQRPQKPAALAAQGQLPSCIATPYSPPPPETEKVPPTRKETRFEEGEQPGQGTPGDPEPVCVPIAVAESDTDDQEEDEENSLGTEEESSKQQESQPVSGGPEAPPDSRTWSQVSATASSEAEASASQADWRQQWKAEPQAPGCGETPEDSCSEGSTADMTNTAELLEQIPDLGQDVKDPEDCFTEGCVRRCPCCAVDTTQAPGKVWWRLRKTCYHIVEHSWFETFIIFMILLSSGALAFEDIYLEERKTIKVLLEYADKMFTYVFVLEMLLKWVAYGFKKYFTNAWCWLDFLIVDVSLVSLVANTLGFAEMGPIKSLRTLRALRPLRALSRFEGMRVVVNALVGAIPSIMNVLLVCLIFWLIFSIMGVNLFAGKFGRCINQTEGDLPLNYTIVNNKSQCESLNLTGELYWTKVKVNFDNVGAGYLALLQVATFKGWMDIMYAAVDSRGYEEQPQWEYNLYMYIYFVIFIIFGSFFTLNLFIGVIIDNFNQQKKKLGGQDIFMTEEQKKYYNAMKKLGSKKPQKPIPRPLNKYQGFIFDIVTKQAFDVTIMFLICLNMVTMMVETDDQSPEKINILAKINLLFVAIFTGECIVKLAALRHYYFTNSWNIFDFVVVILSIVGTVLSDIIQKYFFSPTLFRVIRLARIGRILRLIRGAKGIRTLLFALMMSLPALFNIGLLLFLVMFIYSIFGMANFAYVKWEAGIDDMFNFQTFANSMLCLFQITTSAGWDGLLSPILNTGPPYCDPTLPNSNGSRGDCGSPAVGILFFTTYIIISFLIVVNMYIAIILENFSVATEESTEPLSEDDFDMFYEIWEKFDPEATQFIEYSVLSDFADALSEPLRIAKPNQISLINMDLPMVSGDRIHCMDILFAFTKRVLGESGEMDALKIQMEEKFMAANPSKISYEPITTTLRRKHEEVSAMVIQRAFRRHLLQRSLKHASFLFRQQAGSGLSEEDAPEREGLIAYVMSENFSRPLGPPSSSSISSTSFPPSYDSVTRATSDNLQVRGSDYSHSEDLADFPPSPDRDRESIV

T1 sequence (Q15858 whole entry, looked up): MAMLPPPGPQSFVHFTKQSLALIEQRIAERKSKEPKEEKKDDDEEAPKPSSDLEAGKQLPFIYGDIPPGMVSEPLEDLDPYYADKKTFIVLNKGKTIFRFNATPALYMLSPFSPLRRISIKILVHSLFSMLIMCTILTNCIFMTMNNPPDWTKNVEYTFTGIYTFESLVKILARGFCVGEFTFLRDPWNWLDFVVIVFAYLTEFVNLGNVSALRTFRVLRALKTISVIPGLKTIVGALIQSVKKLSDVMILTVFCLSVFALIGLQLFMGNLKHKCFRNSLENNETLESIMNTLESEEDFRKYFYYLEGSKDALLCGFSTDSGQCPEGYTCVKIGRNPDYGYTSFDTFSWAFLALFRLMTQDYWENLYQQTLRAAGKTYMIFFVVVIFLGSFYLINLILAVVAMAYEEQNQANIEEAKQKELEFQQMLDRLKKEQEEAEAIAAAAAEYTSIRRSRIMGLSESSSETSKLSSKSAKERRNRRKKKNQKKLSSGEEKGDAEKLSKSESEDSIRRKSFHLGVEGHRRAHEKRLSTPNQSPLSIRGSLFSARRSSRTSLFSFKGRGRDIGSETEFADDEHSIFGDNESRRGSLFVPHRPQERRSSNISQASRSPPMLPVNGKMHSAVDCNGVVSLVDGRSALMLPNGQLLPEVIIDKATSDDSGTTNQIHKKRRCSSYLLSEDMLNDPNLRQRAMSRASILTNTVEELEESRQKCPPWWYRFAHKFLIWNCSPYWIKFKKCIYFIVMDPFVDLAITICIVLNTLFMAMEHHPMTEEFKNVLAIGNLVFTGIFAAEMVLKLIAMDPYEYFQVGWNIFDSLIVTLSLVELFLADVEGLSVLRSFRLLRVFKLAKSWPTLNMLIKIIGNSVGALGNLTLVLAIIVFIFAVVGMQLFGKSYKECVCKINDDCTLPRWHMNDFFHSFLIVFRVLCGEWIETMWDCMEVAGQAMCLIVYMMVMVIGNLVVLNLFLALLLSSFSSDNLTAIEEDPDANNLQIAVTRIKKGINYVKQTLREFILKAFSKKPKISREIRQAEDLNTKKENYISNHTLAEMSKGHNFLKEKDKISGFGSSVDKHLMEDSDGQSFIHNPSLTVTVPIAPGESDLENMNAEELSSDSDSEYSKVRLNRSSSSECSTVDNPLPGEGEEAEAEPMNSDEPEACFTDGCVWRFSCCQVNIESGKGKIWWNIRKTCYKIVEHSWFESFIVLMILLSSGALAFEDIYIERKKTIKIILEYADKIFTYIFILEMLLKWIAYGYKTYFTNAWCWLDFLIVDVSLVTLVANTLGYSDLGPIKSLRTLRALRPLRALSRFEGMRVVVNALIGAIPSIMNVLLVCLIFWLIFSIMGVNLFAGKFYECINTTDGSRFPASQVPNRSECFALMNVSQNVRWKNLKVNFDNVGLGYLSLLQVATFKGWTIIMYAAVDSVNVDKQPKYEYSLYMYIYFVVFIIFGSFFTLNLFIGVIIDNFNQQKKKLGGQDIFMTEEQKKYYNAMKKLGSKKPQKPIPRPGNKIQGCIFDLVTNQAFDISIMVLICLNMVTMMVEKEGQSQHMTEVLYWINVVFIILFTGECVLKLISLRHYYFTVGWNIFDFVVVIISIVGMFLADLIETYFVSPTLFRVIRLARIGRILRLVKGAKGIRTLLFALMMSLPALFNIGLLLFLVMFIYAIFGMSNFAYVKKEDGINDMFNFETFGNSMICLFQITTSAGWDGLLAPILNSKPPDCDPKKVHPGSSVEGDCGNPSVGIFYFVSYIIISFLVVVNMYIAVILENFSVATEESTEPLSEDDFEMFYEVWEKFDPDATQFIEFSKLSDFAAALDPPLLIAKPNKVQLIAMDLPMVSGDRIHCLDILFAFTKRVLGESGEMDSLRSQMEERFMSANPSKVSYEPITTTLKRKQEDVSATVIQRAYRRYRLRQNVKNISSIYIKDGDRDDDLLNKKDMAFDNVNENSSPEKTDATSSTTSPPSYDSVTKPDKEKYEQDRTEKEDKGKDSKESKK
T1 sequence (Q07699 whole entry partner, looked up): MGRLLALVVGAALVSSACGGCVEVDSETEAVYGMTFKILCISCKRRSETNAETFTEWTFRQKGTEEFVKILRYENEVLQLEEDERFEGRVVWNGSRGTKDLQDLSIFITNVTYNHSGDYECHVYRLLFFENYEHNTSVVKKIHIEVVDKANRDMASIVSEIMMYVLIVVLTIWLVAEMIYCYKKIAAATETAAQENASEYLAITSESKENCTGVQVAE

IC50 (hNav1.7 [1]): 7.8 nM | IC50 (hNav1.7 [2]): 18 nM
SMILES: O=C(NS(=O)(=O)N1CCC1)c1cc(C2CC2)c(OCC2CCC(F)(F)CC2)cc1F [Example 448, N-(azetidin-1-ylsulfonyl)-5-cyclopropyl-4-((4,4-difluorocyclohexyl)-methoxy)-2-fluorobenzamide]
IC50 (hNav1.5): 940 nM
